Measurements as given in ChEMBL document CHEMBL3045961, “Synthesis and evaluation of some pyrimidine analogs against toxoplasmosis” (Med Chem Res, 2008).
The source made the active and inactive calls. The calls are words filed in the database; no cut-off is given here.

Columns and labels:
[1] = tested on: Toxoplasma gondii; test: Antiparasitic activity Toxoplasma gondii RH infected Swiss albino mouse assessed as decrease in interstitial pneumonia at 0.25 mg, po administered 48 hr post-infection measured after 3 days by haematoxylin and eosin staining relative to control; format: functional, organism-based
[2] = tested on: Toxoplasma gondii; test: Antiparasitic activity Toxoplasma gondii RH infected Swiss albino mouse assessed as smooth tachyzoites in host peritoneal exudate at 0.25 mg, po administered 48 hr post-infection measured after 3 days by scanning electron microscopic analysis; format: functional, organism-based
[3] = tested on: Toxoplasma gondii; test: Antiparasitic activity Toxoplasma gondii RH infected Swiss albino mouse assessed as decreased parasite movement in host peritoneal exudate at 0.25 mg, po administered 48 hr post-infection measured after 3 days by light microscopic analysis; format: functional, organism-based
[4] = tested on: Toxoplasma gondii; test: Antiparasitic activity Toxoplasma gondii RH infected Swiss albino mouse assessed as decrease in host spleen necrosis at 0.25 mg, po administered 48 hr post-infection measured after 3 days by haematoxylin and eosin staining relative to control; format: functional, organism-based
[5] = tested on: Toxoplasma gondii; test: Antiparasitic activity Toxoplasma gondii RH infected Swiss albino mouse assessed as clear mononuclear cells in host liver focal granuloma at 0.25 mg, po administered 48 hr post-infection measured after 3 days by haematoxylin and eosin staining relative to control; format: functional, organism-based
[6] = tested on: Toxoplasma gondii; test: Antiparasitic activity Toxoplasma gondii RH infected Swiss albino mouse assessed as decrease in Toxoplasma antigen in host serum at 0.25 mg, po administered 48 hr post-infection measured after 3 days by Co-A test relative to control; format: functional, organism-based
[7] = tested on: Toxoplasma gondii; test: Antiparasitic activity Toxoplasma gondii RH infected Swiss albino mouse assessed as decrease in host lung congestion at 0.25 mg, po administered 48 hr post-infection measured after 3 days by haematoxylin and eosin staining relative to control; format: functional, organism-based
[8] = tested on: Toxoplasma gondii; test: Antiparasitic activity Toxoplasma gondii RH infected Swiss albino mouse assessed as decrease in host spleen white pulp at 0.25 mg, po administered 48 hr post-infection measured after 3 days by haematoxylin and eosin staining relative to control; format: functional, organism-based
[9] = tested on: Toxoplasma gondii; test: Antiparasitic activity Toxoplasma gondii RH infected Swiss albino mouse assessed as extramedullary hematopoiesis in host spleen at 0.25 mg, po administered 48 hr post-infection measured after 3 days by haematoxylin and eosin staining relative to control; format: functional, organism-based
[10] = tested on: Toxoplasma gondii; test: Antiparasitic activity Toxoplasma gondii RH infected Swiss albino mouse assessed as deep ridged parasite surface in host peritoneal exudate at 0.25 mg, po administered 48 hr post-infection measured after 3 days by scanning electron microscopic analysis; format: functional, organism-based
[11] = tested on: Toxoplasma gondii; test: Antiparasitic activity Toxoplasma gondii RH infected Swiss albino mouse assessed as homogenous tachyzoites in host peritoneal exudate at 0.25 mg, po administered 48 hr post-infection measured after 3 days by scanning electron microscopic analysis; format: functional, organism-based
[12] = target: T1, Dihydrofolate reductase (Homo sapiens, UniProt P00374); test: Inhibition of Homo sapiens (human) dihydrofolate reductase using dihydrofolate as substrate incubated for 5 min prior to substrate addition by spectrophotometric assay
T1 sequence (P00374 whole entry): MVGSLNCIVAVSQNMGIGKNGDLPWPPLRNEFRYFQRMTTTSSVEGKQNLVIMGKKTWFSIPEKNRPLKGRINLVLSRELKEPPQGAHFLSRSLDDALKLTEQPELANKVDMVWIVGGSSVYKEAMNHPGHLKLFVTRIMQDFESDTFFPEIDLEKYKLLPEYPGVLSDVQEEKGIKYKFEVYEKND

[13] = tested on: Toxoplasma gondii; test: Antiparasitic activity Toxoplasma gondii RH infected Swiss albino mouse assessed as dimpled parasite surface in host peritoneal exudate at 0.25 mg, po administered 48 hr post-infection measured after 3 days by scanning electron microscopic analysis; format: functional, organism-based
[14] = tested on: Toxoplasma gondii; test: Antiparasitic activity Toxoplasma gondii RH infected Swiss albino mouse assessed as decrease in host liver necrosis at 0.25 mg, po administered 48 hr post-infection measured after 3 days by haematoxylin and eosin staining relative to control; format: functional, organism-based
[15] = tested on: Toxoplasma gondii; test: Antiparasitic activity against Toxoplasma gondii RH infected Swiss albino mouse assessed as decrease in tachozyte count in liver at 0.25 mg, po administered 48 hr post-infection measured after 3 days by Geimsa staining relative to control; format: functional, organism-based
[16] = target: T2, Bifunctional dihydrofolate reductase-thymidylate synthase (Cryptosporidium parvum) (UniProt Q27552); test: Ratio of trimethorpin IC50 to compound IC50 for Cryptosporidium parvum recombinant DHFR
T2 sequence (whole entry): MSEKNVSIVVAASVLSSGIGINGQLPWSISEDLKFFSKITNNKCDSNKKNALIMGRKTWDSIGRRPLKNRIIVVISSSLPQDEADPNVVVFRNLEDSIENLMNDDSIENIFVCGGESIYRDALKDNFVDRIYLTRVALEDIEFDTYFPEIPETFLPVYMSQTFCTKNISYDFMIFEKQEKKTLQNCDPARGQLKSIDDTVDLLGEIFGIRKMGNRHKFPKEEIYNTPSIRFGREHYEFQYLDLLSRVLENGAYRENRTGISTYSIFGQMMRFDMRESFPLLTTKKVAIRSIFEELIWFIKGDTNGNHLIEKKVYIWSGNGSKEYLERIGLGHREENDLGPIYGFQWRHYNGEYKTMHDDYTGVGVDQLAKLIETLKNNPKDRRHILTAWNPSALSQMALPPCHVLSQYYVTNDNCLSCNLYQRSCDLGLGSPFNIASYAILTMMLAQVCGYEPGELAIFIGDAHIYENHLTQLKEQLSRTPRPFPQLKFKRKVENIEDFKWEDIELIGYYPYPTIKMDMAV

[17] = tested on: Toxoplasma gondii; test: Antiparasitic activity against Toxoplasma gondii RH infected Swiss albino mouse assessed as decrease in tachozyte count in spleen at 0.25 mg, po administered 48 hr post-infection measured after 3 days by Geimsa staining relative to control; format: functional, organism-based
[18] = target: T3, Bifunctional dihydrofolate reductase-thymidylate synthase (Cryptosporidium parvum, UniProt Q27552); test: Inhibition of Cryptosporidium parvum recombinant DHFR using dihydrofolate as substrate incubated for 5 min prior to substrate addition by spectrophotometric assay
T3 sequence (Q27552 whole entry): T2 sequence (whole entry)

[19] = tested on: Toxoplasma gondii; test: Antiparasitic activity Toxoplasma gondii RH infected Swiss albino mouse assessed as parasite deformity in host peritoneal exudate at 0.25 mg, po administered 48 hr post-infection measured after 3 days by light microscopic analysis; format: functional, organism-based
[20] = tested on: Toxoplasma gondii; test: Antiparasitic activity Toxoplasma gondii RH infected Swiss albino mouse assessed as clear lymphocytes in host liver focal granuloma at 0.25 mg, po administered 48 hr post-infection measured after 3 days by haematoxylin and eosin staining relative to control; format: functional, organism-based
[21] = tested on: Toxoplasma gondii; test: Antiparasitic activity Toxoplasma gondii RH infected Swiss albino mouse assessed as increase in host spleen red pulp at 0.25 mg, po administered 48 hr post-infection measured after 3 days by haematoxylin and eosin staining relative to control; format: functional, organism-based
[22] = tested on: Toxoplasma gondii; test: Antiparasitic activity Toxoplasma gondii RH infected Swiss albino mouse assessed as epethelioid granuloma in host spleen at 0.25 mg, po administered 48 hr post-infection measured after 3 days by haematoxylin and eosin staining relative to control; format: functional, organism-based
[23] = tested on: Toxoplasma gondii; test: Antiparasitic activity Toxoplasma gondii RH infected Swiss albino mouse assessed as megakaryocytes in host spleen at 0.25 mg, po administered 48 hr post-infection measured after 3 days by haematoxylin and eosin staining relative to control; format: functional, organism-based
[24] = tested on: Toxoplasma gondii; test: Antiparasitic activity Toxoplasma gondii RH infected Swiss albino mouse assessed as disorganised parasite conoid in host peritoneal exudate at 0.25 mg, po administered 48 hr post-infection measured after 3 days by scanning electron microscopic analysis; format: functional, organism-based
[25] = tested on: Toxoplasma gondii; test: Antiparasitic activity Toxoplasma gondii RH infected Swiss albino mouse assessed as loss of parasite crescent shape in host peritoneal exudate at 0.25 mg, po administered 48 hr post-infection measured after 3 days by scanning electron microscopic analysis; format: functional, organism-based
[26] = tested on: Toxoplasma gondii; test: Antiparasitic activity Toxoplasma gondii RH infected Swiss albino mouse assessed as parasite dimpled conoid in host peritoneal exudate at 0.25 mg, po administered 48 hr post-infection measured after 3 days by scanning electron microscopic analysis; format: functional, organism-based

Structure (SMILES)	Activity [1]	Activity [3]	Activity [4]	Activity [5]	Activity [6]	Activity [7]	Activity [8]	Activity [9]	IC50 [12] [nM]	Activity [14]	Activity [15]	Ratio IC50 [16]	Activity [17]	IC50 [18] [nM]	Activity [19]	Activity [20]	Activity [21]	Activity [22]	Activity [23]	other results
CC(=O)C1=C(C)N=C(SCCC(=O)O)NC1c1cccc(O)c1 (stereo not given)	Active	Active	Active	Active	Active	inactive	Active	inactive	94	Active	Active	40	Active	65	Active	Active	Active	inactive	inactive	Activity [2]: Active; Activity [10]: Active; Activity [11]: Active; Activity [13]: Active
CCOC(=O)C1=C(C)N=C(SCCC(=O)O)NC1c1ccccc1OC (stereo not given)	Active	Active	Active	Active	Active	inactive	Active	inactive	8.9	Active	Active	40	Active	75	Active	Active	Active	inactive	inactive	Activity [24]: Active; Activity [25]: Active; Activity [26]: Active
